Key:
[1] = biological target: T1, acetylcholine nicotinic receptor (Rattus norvegicus, UniProt P09483+P12390); assay: Nicotinic receptor binding, [3H]-NMCI radioligand, rat cortex (Table 6)
T1 construct: rat cortex as the tissue substrate; from tissue; host or cells: rat cortex
Description: Evaluation of Nicotinic Receptor Binding Activity
7-Aza-bicyclo[2.2.1]-heptanes and -heptenes were evaluated for their ability to bind to the acetylcholine nicotinic receptor using a standard binding assay, e.g. X. Zhang and A. Nordberg, Arch. Pharmacol., 348, 28 (1993); R. E. Middleton and J. B. Cohen, Biochemistry, 30, 6987 (1991), with nicotine sulfate as the reference compound, rat cortex as the tissue substrate, and a [^3 H]-NMCI radioligand.

[2] = Tail-flick assay in mice and rats (antinociception); format: in vivo; settings: for Tail-Flick Assay ED50 % Effect After 5 min. / Tail-Flick Assay ED50 % Effect After 60 min.: (mg/kg)
Description: Tail-Flick Assay in Mice and Rats
Female CD-1 mice (20-25 g, Charles River Labs) and male CD rats (300-400 g, Charles River Labs) were housed in groups of two and five, respectively. Animals were given food and water ad libitum. Most studies were performed using groups of 5 animals per treatment unless otherwise noted.
Antinociceptive effects (i.e., analgesia) of test compounds in mice and rats were measured by the tail-flick test using a tail-flick analgesia meter (EMDIE Instrument Co.). A maximum latency of 10 sec was imposed if no response occurred within that time. Antinociceptive activity, measured as % MPE, was calculated as [(test-control)/(10-control)×100)].
Duration of compound and (-)-nicotine-induced antinociception was assessed in mice by measuring antinociception at 2, 5, 10, 20 min after compound (20 μg/kg, s.c.) or nicotine (5 mg/kg, s.c.).
Mice (7/group) or rats were pretreated i.v. (0.9% saline or antagonist, mecamylamine, hexamethonium, atropine, naloxone or yohimbine) 10 minutes before administration of compound or nicotine at different doses. A control response (1.5-4 sec) was determined for each animal before treatment and test latencies were assessed at 5 minutes after compound administration (5 ml/kg, s.c.) or 2 min after nicotine (5 ml/kg, s.c.).

[3] = biological target: T2, nicotinic cholinergic receptor (Rattus norvegicus, UniProt P09483+P12390); assay: Competition with [3H](-)-cytisine for binding to rat cortex (brain) receptors (Tables 7, 8); settings: Table 8, [3H](-)-cytisine, rat brain cortex membranes; read-out: Nicotine Receptor IC50
T2 construct: A membrane fraction from rat brain cortex; tissue Harlan Laboratories; host or cells: rat brain cortex membranes
From the text: Competition with Cytisine for Binding to Rat Cortex (Brain) Receptors
[^3 H](-)-Cytisine is a nicotinic cholinergic receptor ligand that binds with high affinity to the a4b2 subtype receptor, the major subtype in rodent brain accounting for >90% of (-)-nicotine binding sites (Flores, et al., 1992; Whiting, et al., 1992). This nicotinic receptor subtype is most sensitive to (-)-nicotine compared to other receptor subtypes (Connolly, et al., 1992). Compounds that compete with cytisine for the nicotinic cholineric receptor are considered nicotine receptor agonists.
A membrane fraction from rat brain cortex (Harlan Laboratories) was prepared using an adaptation of an established method (Pabreza, et al., 1991). Compound and [^3 H]-(-)-cytisine (New England Nuclear, 42 Ci/mmol) were mixed before addition of membrane (0.5 mg protein) and incubated in glass tubes for 75 minutes on ice; total assay volume was 0.24 ml. Parallel assays to determine nonspecific binding were incubated in the presence of 10 uM (-)-nicotine (Sigma). Bound radioactivity was isolated by vacuum filtration onto glass microfiber filters (Whatman, GF-B) using millipore tubs, followed by 3×4 ml buffer wash. Filters were prerinsed with 0.5% polyethyleneimine prior to sample filtration to reduce nonspecific binding. Bound radioactivity was quantitated by scintillation counting.

[4] = Analgesic activity, Straub-Tail assay (Table 5); format: in vivo
[5] = Analgesic activity, Straub-Tail assay (Table 5); format: in vivo; settings: for ED50: Straub-Tail assay
From the text: A wide variety of biological assays have been used to evaluate the ability of a compound to act as an analgesic. Any of these known assays can be used to evaluate the analgesic ability of the compounds disclosed herein. The Straub-tail reaction, which is characteristic of opiate alkaloids, has been used as an assay for opiate agonists and antagonists. The assay is described in detail in Br. J. of Pharmacol. 1969, 36, 225. Another accepted assay for analgesic activity is the hot plate analgesia assay, described in J. of Pharmacol. Exp. Therap. 1953, 107, 385. An assay for the evaluation of the ability of a compound to bind to an opiate receptor is described in Mol. Pharmacol. 1974, 10, 868.
Evaluation of Analgesic Activity
Table 5 provides the analgesic activity measured as ED50 (μg/Kg) for selected compounds disclosed herein, as determined using the Straub-Tail assay, as describe by J. Daly et al. J. Am. […] Chem. Soc. 1992, 114, 3475; T. Li, et al. Bioorganic and Medicinal Chemistry Letters 1993, 3, 2759.

[6] = opiate antagonist naloxone; cited from earlier work
opiate receptors = settings: in words; cited from earlier work
[7] = system: nicotinic cholinergic receptor; settings: in words; cited from earlier work
a4b2 subtype receptor = settings: in words; cited from earlier work
[8] = Straub-Tail assay, read-out: ED50

Q: What does the source list for C[N+]1(C)C2CCC1C(c1ccc(Cl)nc1)C2 (stereo not shown)?
A: Inhibition % ([1]; testing level 10^-5 M): 104%; Inhibition % ([1]; testing level 10^-7 M): 100%

Q: With N=CN1C2CCC1C(c1ccc(Cl)nc1)C2 (stereo not shown) as the compound, how does the Inhibition % ([1]; testing level 10^-7 M) read?
A: 104%

Q: Which results are given for N=CN1C2CCC1C(c1cccnc1)C2 (stereo not shown)?
A: Inhibition % ([1]; testing level 10^-7 M): 103.9%; Inhibition % ([1]; testing level 10^-8 M): 71.3%

Q: For Cc1noc(C2CC3CCC2N3C)n1 (stereo not shown), which ED50 ([2]; Mus musculus, sc, Table 8) is on record?
A: 0.23 mg/kg

Q: For Cc1cc(C2CC3CCC2N3)on1 (stereo not shown), which IC50 [3] is on record?
A: 630 nM

Q: With Cc1cc(C2CC3CCC2N3C)on1 (stereo not shown) as the compound, how does the IC50 [3] read?
A: 24 nM

Q: With CN1C2CCC1C(c1ccc3ccccc3n1)C2 (stereo not shown) as the compound, how does the IC50 [3] read?
A: 77 nM

Q: With c1ccc2nc(C3CC4CCC3N4)ccc2c1 (stereo not shown) as the compound, how does the IC50 [3] read?
A: 7 nM

Q: With CN1[C@H]2CC[C@@H]1[C@@H](c1ccc(Cl)nc1)C2 (relative stereo) as the compound, how does the ED50 [4, 8] read?
A: < 0.01 mg/kg

Q: With COc1ccc([C@H]2C[C@@H]3CC[C@H]2N3)cn1 (relative stereo) as the compound, how does the ED50 [4, 8] read?
A: 0.75 mg/kg

Q: For Clc1ccc([C@H]2C[C@@H]3CC[C@H]2N3CC2CC2)cn1 (relative stereo), which “effect in Straub-Tail assay” value ([5]; @ 1000 μg/Kg) is on record?
A: 100%

Q: Which ED50 [4, 8] does the source give for Clc1ccc([C@H]2C[C@@H]3CC[C@H]2N3CCc2ccccc2)cn1 (relative stereo) here?
A: < 1 mg/kg

Q: For c1cncc([C@H]2C[C@@H]3CC[C@H]2N3)c1 (relative stereo), which ED50 [4, 8] is on record?
A: 0.25 mg/kg

Q: Which ED50 [4, 8] does the source give for Clc1ccc([C@H]2C[C@@H]3C=C[C@H]2N3)cn1 (relative stereo) here?
A: < 1 mg/kg

Q: For C[N+]1(C)[C@H]2CC[C@@H]1[C@@H](c1ccc(Cl)nc1)C2 (relative stereo), which ED50 [4, 8] is on record?
A: 0.1 to 0.2 mg/kg

Q: For Fc1ccc([C@H]2C[C@@H]3CC[C@H]2N3)cn1 (relative stereo), which ED50 [4, 8] is on record?
A: ~0.05 mg/kg

Q: For ClCCN1[C@H]2CC[C@@H]1[C@@H](c1ccc(Cl)nc1)C2 (relative stereo), which ED50 [4] is on record?
A: ~0.1 mg/kg

Q: For N=CN1[C@H]2CC[C@@H]1[C@@H](c1ccc(Cl)nc1)C2 (relative stereo), which “effect in Straub-Tail assay” value ([5]; @ 100 (μg/Kg per column head)) is on record?
A: 99%

Q: For CC(C)(C)Oc1ccc([C@H]2C[C@@H]3CC[C@H]2N3)cn1 (relative stereo), which ED50 [4, 8] is on record?
A: ~1 mg/kg

Q: For Clc1ccc([C@H]2C[C@@H]3CC[C@H]2N3)cn1 (relative stereo) [drawing 50], which ED50 [5] is on record?
A: 0.01 mg/kg

Q: Which “effect of naloxone on Straub-tail response” value [6] does the source give for Clc1ccc([C@H]2C[C@@H]3CC[C@H]2N3)cn1 (relative stereo) [epibatidine, exo-2-(2-chloro-5-pyridyl)-7-azabicyclo[2.2.1]heptane] here?
A: not reversed by the opiate antagonist naloxone

Q: And the “affinity for opiate receptors” value (opiate receptors)?
A: negligible affinity

Q: What about the “nicotinic cholinergic receptor activity” value [7] of the same compound?
A: nicotinic cholinergic receptor agonist

Q: With O=c1cccc2n1C[C@@H]1CNC[C@H]2C1 [[^3 H](-)-Cytisine] as the compound, how does the “affinity for a4b2 subtype receptor” value (a4b2 subtype receptor) read?
A: high affinity

Q: For Clc1ccc([C@@H]2C[C@H]3CC[C@@H]2N3)cn1 [d-epibatidine], which ED50 [5] is on record?
A: > 0.1 mg/kg

Q: For c1cncc(C2CC3CCC2N3)c1 (stereo not shown) [drawing 40], which ED50 [4, 8] is on record?
A: 10 mg/kg

Q: For c1cncc(C2CC3CCC2N3)c1 (stereo not shown) [drawing 55], which Inhibition % ([1]; testing level 10^-5 M) is on record?
A: 104%

Q: What about the Inhibition % ([1]; testing level 10^-9 M) of the same compound?
A: 103%

Q: What does the source list for Cc1nnc(C2CC3CCC2N3C)o1 (stereo not shown) [drawing 60]?
A: Tail-Flick Assay ED50 % Effect After 5 min. [2]: -2.9%; Tail-Flick Assay ED50 % Effect After 60 min. [2]: -3.6%

Q: What does the source list for Cc1nnc(C2CC3CCC2N3C)o1 (stereo not shown) [drawing 61]?
A: Tail-Flick Assay ED50 % Effect After 5 min. [2]: 6.7%; Tail-Flick Assay ED50 % Effect After 60 min. [2]: 24.6%

Source: US5817679A, “7-Azabicyclo[2.2.1]-heptane and -heptene derivatives as cholinergic receptor ligands” (priority 1994, dated 1998)
